Source: patent publication US5049559A, “Thieno-triazolo-diazepine derivatives useful as anti-ischemic agents” (priority 1989, dated 1991)

What was measured:
[1] = system: platelet aggregation induced by PAF; assay: Inhibition of platelet aggregation induced by PAF; format: cell-based; conditions: Oryctolagus cuniculus, male New Zealand rabbits, Table I
Experimental: 1) Inhibition of platelet aggregation induced by PAF
This experimentation was conducted according to the method of R. KINLOUGH. RATHBONE, J. P. CAZENAVE, M. PACKHAM and F. MUSTARD, Lab. Invest. 48, 98, 1980. In this test, New Zealand rabbits were used (male New Zealand rabbits of an average weight of 5 kg).
The determinations are made on a chrono-log Coultronics aggregometer, at […] coupled with a graphic recorder; the results of these determinations (in molecular concentration) are reported on the table I on the central column.

[2] = Global ischemia on gerbils; format: in vivo; conditions: Meriones unguiculatus, 168 h, carotides clamped 10 minutes, hippocampes one week later, 3H-PK 11195, percentage of protection compared to control
Experimental: 3) Global ischemia on gerbils For this test, males gerbils were anaesthetized with brietal at the doses of 35 mg/kg IP; thereafter, both carotides were clamped for 10 minutes, then the clamping was released. Treated animals received each 10 mg/kg of the compounds of one of the examples. One week later, the animals were killed and both hippocampes were taken, weighed and frozen at -80° C. After crushing with 1 ml of TRIS-HCl pH 7.4 for 30 seconds, aliquots of each 50 μl of this preparation were incubed in each 1 ml of TRIS-HCl buffer containing ^3 H-PK 11195 at 2 nM (90 Ci/mmole, NENE, Germany) for 1 hour at 25° C. For each preparation, 3 determinations were made. The density of omega 3 sites (marked by the specific ^3 H-PK 11195 marker) are expressed in f-moles of PK 11195/mg of fresh tissues and converted in percentage of protection compared to control.

benzodiazepine receptors = assay: Inhibition of the binding to benzodiazepine receptors; conditions: rat brains, 1 hour 30 minutes at 4° C., tracers 3H-RO-15-1788 and 3H-RO-5-4864, Table I, read-out: BDZ receptors
Excerpt: 2) Inhibition of the binding to benzodiazepine receptors
The interest of the previous experimentation depends on the results obtained in this experimentation: as a compound of the invention has a benzodiazepine like structure, it is important to check whether the specific benzodiazepine activity would not appear at the dose where platelet aggregation was inhibited.
Therefore, this experimentation has been conducted according to the method of MOHLER H. and RICHARD J. G. Agonist and antagonist benzodiazepine receptor interaction in vitro, Nature, vol. 294, 763-765, 1981.
This experimentation was conducted on rat brains incubated 1 hour 30 minutes at 4° C. using ^3 H-RO-15-1788 and ^3 H-RO-5-4864 (NEN) as tracers and […] and RO-5-4864 as reference antagonists.
The results in molecular concentration are reported in the table I, on the right hand column.

Row | SMILES | IC50 [1] | inhibition in vivo at 10 mg/kg [2] | IC50 (benzodiazepine receptors)
1 | Cc1nnc2n1-c1sc3c(c1C(c1ccccc1Cl)=NC2)CCN(C(=O)CSC(C)C)C3 [Example 1, 6-(2-chlorophenyl)-9-(isopropylthiomethylcarbonyl)-7,8,9,10-tetrahydro-1-methyl-4H-pyrido [4',3':4,5] thieno [3,2-f] 1,2,4-triazolo [4,3-a] 1,4-diazepine] | 0.0253 µM | 54.2% | 6.7 µM
2 | Cc1nnc2n1-c1sc3c(c1C(c1ccccc1Cl)=NC2)CCN(C(=S)CSC(C)C)C3 [Example 2, 6-(2-chlorophenyl)-9-(isopropylthiomethyl-thiocarbonyl)-7,8,9,10-tetrahydro-1-methyl-4H-pyrido [4',3':4,5] thieno [3,2-f] 1,2,4-triazolo [4,3-a] 1,4-diazepine] | 0.0281 µM | 36.3% | 48.2 µM
3 | Cc1nnc2n1-c1sc3c(c1C(c1ccccc1Cl)=NC2)CCN(C(=O)CSC(C)(C)C)C3 [Example 3, 6-(2-chlorophenyl)-9-(t.butylthiomethyl-carbonyl)-7,8,9, 10-tetrahydro-1-methyl-4H-pyrido [4',3':4,5] thieno [3,2-f] 1,2,4-triazolo[4,3-a] 1,4-diazepine] | 0.0168 µM | 34.3% | 2.3 µM
4 | Cc1nnc2n1-c1sc3c(c1C(c1ccccc1Cl)=NC2)CCN(C(=S)CSC(C)(C)C)C3 [Example 4, 6-(2-chlorophenyl)-9-(t.butylthiomethyl-thiocarbonyl)-7,8,9, 10-tetrahydro-1-methyl-4H-pyrido [4',3':4,5] thieno [3,2-f] 1,2,4-triazolo[4,3-a] 1,4-diazepine] | 0.497 µM | 38.1% | 1.55 µM
5 | CCCCCCCCCCCCCCCCSCC(=O)N1CCc2c(sc3c2C(c2ccccc2Cl)=NCc2nnc(C)n2-3)C1 [Example 5, 6-(2-chlorophenyl)-9-(hexadecylthiomethyl-carbonyl)-7,8,9, 10-tetrahydro-1-methyl-4H-pyrido [4',3':4,5] thieno [3,2-f] 1,2,4-triazolo[4,3-a] 1,4-diazepine] | 0.00743 µM | 29.4% | 0.121 µM
6 | CCCCCCCCCCCCCCCCSCC(=S)N1CCc2c(sc3c2C(c2ccccc2Cl)=NCc2nnc(C)n2-3)C1 [Example 6, 6-(2-chlorophenyl)-9-(hexadecylthiomethyl-thiocarbonyl); 7,8,9, 10-tetrahydro-1-methyl-4H-pyrido [4',3':4,5] thieno [3,2-f] 1,2,4-triazolo[4,3-a] 1,4-diazepine] | 0.00946 µM | 27.8% | 0.91 µM
7 | Cc1nnc2n1-c1sc3c(c1C(c1ccccc1Cl)=NC2)CCN(C(=O)CSc1ccccc1)C3 [Example 7, 6-(2-chlorophenyl)-9-(phenyl-thiomethyl-carbonyl)-7,8,9, 10-tetrahydro-1-methyl-4H-pyrido [4',3':4,5] thieno [3,2-f] 1,2,4-triazolo[4,3-a] 1,4-diazepine] | 0.511 µM | 14.8% | 2.1 µM
8 | Cc1nnc2n1-c1sc3c(c1C(c1ccccc1Cl)=NC2)CCN(C(=S)CSc1ccccc1)C3 [Example 8, 6-(2-chorophenyl)-9-(phenyl-thiomethyl-thiocarbonyl)-7,8,9, 10-tetrahydro-1-methyl-4H-pyrido [4',3':4,5] thieno [3,2-f] 1,2,4-triazolo[4,3-a] 1,4-diazepine] | 0.0105 µM | 26.2% | 7.33 µM
9 | COc1ccc(SCC(=O)N2CCc3c(sc4c3C(c3ccccc3Cl)=NCc3nnc(C)n3-4)C2)cc1 [Example 9, 6-(2-chlorophenyl)-9-(4-methoxyphenylthiomethyl-carbonyl)-7,8,9, 10-tetrahydro-1-methyl-4H-pyrido [4',3':4,5] thieno [3,2-f] 1,2,4-triazolo[4,3-a] 1,4-diazepine] | 0.0337 µM | 31.2% | 2.7 µM
10 | COc1ccc(SCC(=S)N2CCc3c(sc4c3C(c3ccccc3Cl)=NCc3nnc(C)n3-4)C2)cc1 [Example 10, 6-(2-chlorophenyl)-9-(4-methoxyphenylthiomethyl-thiocarbonyl)-7,8,9, 10-tetrahydro-1-methyl-4H-pyrido [4',3':4,5] thieno [3,2-f] 1,2,4-triazolo[4,3-a] 1,4-diazepine] | 0.171 µM | 10.3% | 66 µM
11 | COc1ccc(SCC(=O)N2CCc3c(sc4c3C(c3ccccc3Cl)=NCc3nnc(C)n3-4)C2)cc1OC [Example 11, 6-(2-chlorophenyl)-9-(3,4-dimethoxyphenylthiomethyl-carbonyl)-7,8,9, 10-tetrahydro-1-methyl-4H-pyrido [4',3':4,5] thieno [3,2-f] 1,2,4-triazolo[4,3-a] 1,4-diazepine] | 0.0264 µM | 46.5% | 1.4 µM
12 | COc1ccc(SCC(=S)N2CCc3c(sc4c3C(c3ccccc3Cl)=NCc3nnc(C)n3-4)C2)cc1OC [Example 12, 6-(2-chlorophenyl)-9-(3,4-dimethoxyphenylthiomethyl-thiocarbonyl)-7,8,9, 10-tetrahydro-1-methyl-4H-pyrido [4',3':4,5] thieno [3,2-f] 1,2,4-triazolo [4,3-a] 1,4-diazepine] | 0.0314 µM | 34.1% | 0.87 µM
13 | COc1cc(SCC(=O)N2CCc3c(sc4c3C(c3ccccc3Cl)=NCc3nnc(C)n3-4)C2)cc(OC)c1OC [Example 13, 6-(2-chlorophenyl)-9-(3,4,5-trimethoxyphenylthiomethylcarbonyl)-7,8,9, 10-tetrahydro-1-methyl-4H-pyrido [4',3':4,5] thieno [3,2-f] 1,2,4-triazolo[4,3-a] 1,4-diazepine] | 0.0185 µM | 32.1% | 55 µM
14 | COc1cc(SCC(=S)N2CCc3c(sc4c3C(c3ccccc3Cl)=NCc3nnc(C)n3-4)C2)cc(OC)c1OC [Example 14, 6-(2-chlorophenyl)-9-(3,4,5-trimethoxyphenylthiomethyl-thiocarbonyl)-7,8,9, 10-tetrahydro-1-methyl-4H-pyrido [4',3':4,5] thieno [3,2-f] 1,2,4-triazolo [4,3-a] 1,4-diazepine] | 0.00922 µM | 19.7% | 1.5 µM
15 | COc1ccc(SCC(=O)N2CCc3c(sc4c3C(c3ccccc3Cl)=NCc3nnc(C)n3-4)C2)c(OC)c1OC [Example 15, 6-(2-chlorophenyl)-9-(2,3,4-trimethoxyphenylthiomethyl-carbonyl)-7,8,9, 10-tetrahydro-1-methyl-4H-pyrido [4',3':4,5] thieno [3,2-f] 1,2,4-triazolo[4,3-a] 1,4-diazepine] | 0.12 µM | 35.8% | 3.6 µM
16 | COc1ccc(SCC(=S)N2CCc3c(sc4c3C(c3ccccc3Cl)=NCc3nnc(C)n3-4)C2)c(OC)c1OC [Example 16, 6-(2-chlorophenyl)-9-(2,3,4-trimethoxyphenylthiomethylthiocarbonyl)-7,8,9, 10-tetrahydro-1-methyl-4H-pyrido [4',3':4,5] thieno [3,2-f] 1,2,4-triazolo [4,3-a] 1,4-diazepine] | 0.0535 µM | 29.3% | 0.6 µM
